Measured values from PubChem BioAssay (NCI).
Where “and” joins values, the source holds several entries; their conditions need not be identical. Identical values can stand only once.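 GI50 marks 50% less growth. Definition used: TGI = concentration required for complete inhibition of growth.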

Legend:
Assay in all cases: NCI tumour cell line growth inhibition, 384-well format
786-0 renal = system: 786-0 renal
A498 renal = system: A498 renal
A549 NSCLC = system: A549 NSCLC
ACHN renal = system: ACHN renal
BT-549 breast = system: BT-549 breast
CAKI-1 renal = system: CAKI-1 renal
CCRF-CEM leukemia = system: CCRF-CEM leukemia
COLO 205 colon = system: COLO 205 colon
DU-145 prostate = system: DU-145 prostate
EKVX NSCLC = system: EKVX NSCLC
HCC-2998 colon = system: HCC-2998 colon
HCT-116 colon = system: HCT-116 colon
HCT-15 colon = system: HCT-15 colon
HL-60(TB) leukemia = system: HL-60(TB) leukemia
HOP-62 NSCLC = system: HOP-62 NSCLC
HOP-92 NSCLC = system: HOP-92 NSCLC
HS 578T breast = system: HS 578T breast
HT29 colon = system: HT29 colon
IGROV1 ovarian = system: IGROV1 ovarian
K-562 leukemia = system: K-562 leukemia
KM12 colon = system: KM12 colon
LOX IMVI melanoma = system: LOX IMVI melanoma
M14 melanoma = system: M14 melanoma
MALME-3M melanoma = system: MALME-3M melanoma
MCF7 breast = system: MCF7 breast
MDA-MB-231 breast = system: MDA-MB-231 breast
MDA-MB-435 melanoma = system: MDA-MB-435 melanoma
MDA-MB-468 breast = system: MDA-MB-468 breast
MOLT-4 leukemia = system: MOLT-4 leukemia
NCI-H226 lung = system: NCI-H226 lung
NCI-H23 lung = system: NCI-H23 lung
NCI-H322M lung = system: NCI-H322M lung
NCI-H460 NSCLC = system: NCI-H460 NSCLC
NCI-H522 lung = system: NCI-H522 lung
NCI/ADR-RES ovarian = system: NCI/ADR-RES ovarian
OVCAR-3 ovarian = system: OVCAR-3 ovarian
OVCAR-4 ovarian = system: OVCAR-4 ovarian
OVCAR-5 ovarian = system: OVCAR-5 ovarian
OVCAR-8 ovarian = system: OVCAR-8 ovarian
PC-3 prostate = system: PC-3 prostate
RPMI-8226 leukemia = system: RPMI-8226 leukemia
RXF 393 renal = system: RXF 393 renal
SF-268 CNS = system: SF-268 CNS
SF-295 CNS = system: SF-295 CNS
SF-539 CNS = system: SF-539 CNS
SK-MEL-2 melanoma = system: SK-MEL-2 melanoma
SK-MEL-28 melanoma = system: SK-MEL-28 melanoma
SK-MEL-5 melanoma = system: SK-MEL-5 melanoma
SK-OV-3 ovarian = system: SK-OV-3 ovarian
SN12C renal = system: SN12C renal
SNB-19 CNS = system: SNB-19 CNS
SNB-75 CNS = system: SNB-75 CNS
SR leukemia = system: SR leukemia
SW-620 colon = system: SW-620 colon
T-47D breast = system: T-47D breast
TK-10 renal = system: TK-10 renal
U251 glioblastoma = system: U251 glioblastoma
UACC-257 melanoma = system: UACC-257 melanoma
UACC-62 melanoma = system: UACC-62 melanoma
UO-31 renal = system: UO-31 renal

## COc1c(OCCCN2CCOCC2)ccc2c3n(c(=NC(=O)c4cnc(N)nc4)nc12)CCN3
786-0 renal
  GI50: 177 nM and 242 nM
  TGI: 14 µM
A498 renal
  GI50: 53.9 nM and 68.3 nM
  TGI: 146 nM and 470 nM
A549 NSCLC
  GI50: 67.7 nM and 54.1 nM
  TGI: 849 nM and 908 nM
ACHN renal
  GI50: 26.6 nM and 108 nM
BT-549 breast
  GI50: 102 nM and 65.3 nM
  TGI: 2870 nM and 648 nM
CAKI-1 renal
  GI50: 27 nM and 72.4 nM
  TGI: 317 nM
CCRF-CEM leukemia
  GI50: 18 nM and 38.6 nM
  TGI: 5.61 µM and 1.33 µM
COLO 205 colon
  GI50: 26.9 nM and 48.5 nM
  TGI: 3.67 µM and 3.44 µM
DU-145 prostate
  GI50: 128 nM and 164 nM
  TGI: > 100 µM
EKVX NSCLC
  GI50: 22 nM and 56.8 nM
  TGI: 289 nM and 1160 nM
HCC-2998 colon
  GI50: 82.3 nM and 138 nM
  TGI: 5.44 µM and 0.766 µM
HCT-116 colon
  GI50: 101 nM and 163 nM
  TGI: > 50 µM
HCT-15 colon
  GI50: 47.8 nM and 78.3 nM
  TGI: > 50 µM
HL-60(TB) leukemia
  GI50: < 5 nM
HOP-62 NSCLC
  GI50: 167 nM and 385 nM
  TGI: > 100 µM
HOP-92 NSCLC
  GI50: 38.5 nM and 35 nM
HS 578T breast
  GI50: 55.7 nM and 30 nM
  TGI: 289 nM and 347 nM
HT29 colon
  GI50: 22.9 nM
  TGI: > 50 µM
IGROV1 ovarian
  GI50: < 5 nM
  TGI: 16.5 nM and 29.9 nM
K-562 leukemia
  GI50: 2250 nM
  TGI: > 50 µM
KM12 colon
  GI50: 436 nM and 316 nM
  TGI: > 100 µM
LOX IMVI melanoma
  GI50: 154 nM
  TGI: 1210 nM
M14 melanoma
  GI50: 190 nM and 158 nM
  TGI: > 50 µM
MALME-3M melanoma
  GI50: 74.5 nM and 22.8 nM
  TGI: 396 nM and 204 nM
MCF7 breast
  GI50: < 5 nM
  TGI: > 50 µM
MDA-MB-231 breast
  GI50: 1960 nM and 219 nM
MDA-MB-435 melanoma
  GI50: 237 nM
  TGI: > 100 µM
MDA-MB-468 breast
  GI50: 15.3 nM and 20.4 nM
  TGI: 79.7 nM and 138 nM
MOLT-4 leukemia
  GI50: 17.3 nM and < 11.8 nM
  TGI: 101 nM and 38.5 nM
NCI-H226 lung
  GI50: 160 nM and 90.8 nM
  TGI: > 50 µM
NCI-H23 lung
  GI50: 472 nM and 248 nM
  TGI: > 50 µM
NCI-H322M lung
  GI50: 93.3 nM and 38.9 nM
NCI-H460 NSCLC
  GI50: 21.5 nM and 25.9 nM
  TGI: > 100 µM
NCI-H522 lung
  GI50: 147 nM and 151 nM
  TGI: > 50 µM and 5.61 µM
NCI/ADR-RES ovarian
  GI50: 1970 nM and 424 nM
  TGI: > 100 µM
OVCAR-3 ovarian
  GI50: 69 nM and 43.9 nM
  TGI: 556 nM and 619 nM
OVCAR-4 ovarian
  GI50: 419 nM and 388 nM
  TGI: 15.7 µM and 3.43 µM
OVCAR-5 ovarian
  GI50: 51.9 nM and 152 nM
  TGI: > 100 µM
OVCAR-8 ovarian
  GI50: 118 nM and 219 nM
  TGI: > 50 µM
PC-3 prostate
  GI50: 66.8 nM and 34.4 nM
RPMI-8226 leukemia
  GI50: 129 nM and 122 nM
  TGI: 441 nM and 285 nM
RXF 393 renal
  GI50: 174 nM and 47 nM
  TGI: 611 nM and 162 nM
SF-268 CNS
  GI50: 132 nM and 268 nM
  TGI: 29.1 µM
SF-295 CNS
  GI50: 177 nM and 135 nM
SF-539 CNS
  GI50: 103 nM and 96.9 nM
SK-MEL-2 melanoma
  GI50: 224 nM
  TGI: 7.36 µM
SK-MEL-28 melanoma
  GI50: 71 nM and 56.2 nM
  TGI: 2560 nM
SK-MEL-5 melanoma
  GI50: 69.8 nM and 95.1 nM
  TGI: 197 nM and 431 nM
SK-OV-3 ovarian
  GI50: 10.1 nM
  TGI: 63.7 nM
SN12C renal
  GI50: 77.7 nM
  TGI: > 50 µM
SNB-19 CNS
  GI50: 572 nM and 1040 nM
  TGI: > 100 µM
SNB-75 CNS
  GI50: 7.16 nM and < 13.2 nM
  TGI: 31.7 nM and 81.4 nM
SR leukemia
  GI50: 215 nM and 198 nM
  TGI: 3020 nM and 714 nM
SW-620 colon
  GI50: 270 nM and 656 nM
  TGI: > 100 µM
T-47D breast
  GI50: < 5 nM
  TGI: 25.6 nM and < 10.6 nM
TK-10 renal
  GI50: 22.8 nM and 28 nM
  TGI: 583 nM and 612 nM
U251 glioblastoma
  GI50: 314 nM and 510 nM
  TGI: > 100 µM
UACC-257 melanoma
  GI50: 172 nM and 201 nM
  TGI: 10.3 µM and 3.8 µM
UACC-62 melanoma
  GI50: 82 nM and 84.4 nM
  TGI: 237 nM and 362 nM
UO-31 renal
  GI50: 30.5 nM
  TGI: 258 nM
